This is an account of results in US20050003022A1 (priority 2002, published 2005).

For data set [1] the following is noted: in vivo; cited from earlier work.
In a further data set the test system is influenza. As to conditions: in vivo; cited from earlier work.
For a further data set, the system named is influenza virus. On the set-up: species or system small mice. As to conditions: in vivo.

Take `CC(=O)N[C@H]1[C@H]([C@H](O)[C@H](O)CO)OC(C(=O)O)=C[C@@H]1N=C(N)N` [Zanamivir]: in data set [1], the “utilization ratio of oral taken drug” value was 2%. In the data set on influenza, the “median day for alleviating influenza symptoms” value was 6.5 days and the “reduction from average influenza case” value is 1.3 days.
With `NC(=O)c1ncn([C@@H]2O[C@H](CO)[C@@H](O)[C@H]2O)n1` [Ribavirin], the “small mouse protection ratio (ED50)” value in the data set with influenza virus is recorded as 25 mg/kg.
